Values joined by “and” are separate entries in the source; they are usually repeats but may differ in a detail not shown here. Identical values can stand only once. “Also recorded” adds a separate entry of the source.
Tests used:
bovine retinal pericytes [1] = experiment: Apoptosis of bovine retinal pericytes cultured with AGE-methylglyoxal, annexin V / propidium iodine staining; type: cell-based
Description: The effects of AGE were tested on a uniform batch of cells (bovine retinal pericytes stemming from the same primary culture). When they were at confluence, the bovine retinal pericytes in primary culture were trypsinated. After having allowed them to become attached for 4 hours at 37° C., the medium and the cell debris that had not adhered to the matrix were eliminated and the culture medium (10% of FCS for bovine retinal pericytes) was added. An AGE solution (or its control) was added to the culture medium until reaching a concentration of […] to test the effects of AGE. The cultures were then continued for 1 or 2 passages with the agents, either for 7 or 15 days, respectively, for the bovine retinal pericytes.
Apoptosis was detected and quantified in pericytes cultured during two passages with 2 μM of AGE-methylglyoxal or its control using the technique based on detecting apoptotic cells with annexin V and detecting necrotic cells with propidium iodine.
The presence of phosphatidylserine (PS) on the external layer of the plasma membrane, which is characteristic of apoptotic cells, can be detected using annexin V labeled with fluorescein. This protein has a very strong affinity for PS. Staining is performed in the presence of an intercalating DNA dye, propidium iodine, similar to ethidium bromide to distinguish the apoptotic cells from possibly present necrotic cells which also fix annexin V. For this labeling the pericytes must be subconfluent (75% of confluence) and, thus, cultured for only about 12 days with AGE-methylglyoxal or BSA control.
The bovine retinal pericytes (dish 3.5 cm in diameter) were rinsed three times with PBS then incubated for 10 minutes in the dark with 500 μl of a HEPES buffer containing 10 μl of the fluorescein-labeled annexin V solution and 10 μl of the propidium iodine solution provided in the determination kit. The apoptotic cells as well as the necrotic cells fixed the annexin V and thus appeared green under the fluorescence microscope, but only the nuclei of the necrotic cells were dyed red by the propidium iodine. The percentages of necrotic cells and apoptotic cells were determined on 10 different fields, i.e., on a total of 300 to 800 cells.
Apoptosis was detected and quantified by labeling with annexin V and propidium iodine in bovine retinal pericytes during two passages with 2 μM of AGE-methylglyoxal or their control (see Material and Methods). […] Fluorescein-labeled annexin V stained green the plasma membranes of the apoptotic and necrotic cells, but only the necrotic cells whose cells had lost their integrity, were permeable to propidium iodide which stained their nuclei red. […] The cells were cultured during two passages (approximately 15 days) in the presence of 2 μM of AGE-methylglyoxal or control BSA. The results are expressed as % of apoptotic cells in the total cell population.

bovine retinal pericytes [2] = experiment: Determination of ceramides and diacylglycerols (DAG) in pericytes cultured with AGE-methylglyoxal (DAG-kinase, 32P-ATP); type: cell-based; details: for % inhibition of the stimulated production of DAG induced by AGE-methylglyoxal / % inhibition of the stimulated production of ceramides induced by AGE-methylglyoxal: two passages
Description: The ceramides and diacylglycerols were measured in the pericytes cultured during two passages with […] of AGE-methylglyoxal or their control according to the method described by Preiss et al. (1986). This method is based on the phosphorylation of the ceramides and DAG by purified diacylglycerol kinase (DAG-kinase) from Escherichia coli in the presence of ATP labeled with ^32P on the γ phosphor in accordance with the diagram shown in FIG. 3.
The pericytes (2 or 3 dishes, 6 cm in diameter) were rinsed, recovered by scraping with a rubber policeman in 0.5 ml of water on ice and the dish rinsed by a supplementary 0.5 ml (volume of 1 ml of cell suspension) to which was added 10 μl of a solution of (9,10-^3H)-triacylglycerol at 0.5 μCi/ml.
The total lipids were then extracted by the method of Bligh and Dyer (1959). To this cell suspension (1 ml of PBS) was added 3.75 ml of a chloroform: methanol (2:1, v/v) mixture containing 80 μl of BHT (5 mM) in solution in ethanol. The solutions were then vortexed for 30 seconds and allowed to stand for a minimum of 30 minutes, then 1.25 ml of NaCl (0.9%) and 1.25 ml of chloroform were added to separate the phases. After centrifugation (700 g, 5 minutes), the bottom organic phase was collected and extraction of the aqueous phase was repeated twice with 1.5 ml of chloroform. The lipid extracts were then collected and the chloroform evaporated under a nitrogen stream. The aqueous phase enabled determination of the total proteins by staining with amide black and the organic phase was recovered in an Eppendorf tube then evaporated under nitrogen.
A standard range of ceramides (25 to 2500 ng) and DAG (25 to 25,000 ng) containing the same quantity of tritium-labeled triacylglycerol was prepared in parallel. The lipids were then solubilized in 20 μl of a solution of detergents (7.5% of n-octylglucopyranoside, […] and 1 mM of DETAPAC) by 1 minute of sonication followed by incubation for 15 minutes at ambient temperature. The reaction was started by addition of 50 μl of reaction buffer (imidazole 100 mM, NaCl 100 mM, MgCl2 25 mM, EGTA 2 mM, pH 6.6), 20 μl of a solution of DAG-kinase (4.86 mU) containing 10 mM of DTT and 10 μl of [γ-^32P] ATP at 5 mCi/ml diluted 10-fold in a solution containing 10 mM of unlabeled ATP, 100 mM of imidazole and 1 mM of DETAPAC (pH 6.6). The reaction was allowed to continue for 1 hour at ambient temperature and then stopped by 1 ml of the mixture chloroform:methanol: 1N hydrochloric acid (100:100:1, v/v/v), 170 μl of a buffer containing 10 mM of HEPES, 135 mM of NaCl, 1.5 mM of CaCl2, 0.5 mM of MgCl2 and 5.6 mM of glucose (pH 7.4) then 30 μl of EDTA 100 mM. The mixture was then vortexed, allowed to stand for 15 minutes at ambient temperature, then centrifuged (10,000 g, 5 minutes) at ambient temperature.
The organic phase (bottom) was collected and evaporated under nitrogen. The lipids were then taken up with 300 μl of the mixture ether:methanol (9:1, v/v) and deposited on a silica plate. The ceramides-1-phosphate were separated from the phosphatidic acid and triacylglycerols using the mixture chloroform:methanol: acetic acid (65:15:5, v/v/v) as migration solvent.
Exposure of the silica plate to an autoradiographic film (30 minutes, 80° C.) allowed visualization of the different ^32P-labeled lipids. The spots corresponding to the ceramides-1-phosphate and phosphatidic acid as well as the last 3 cm before the migration front (corresponding to the triacylglycerols) were delimited with a graphite crayon and scratched. The silica was recovered in counting pots, moistened with 200 μl of methanol, 200 μl of distilled water and 2 ml of scintillation liquid (Picofluor) for 2 hours before the addition of 8 ml of the scintillation liquid. The radioactivity emitted by the ^32P or the ^3H was then counted in each pot. The radioactivity emitted by the mother solution of (9,10-^3H)-triacylglycerol was also counted which allowed calculation of the reaction yield for each sample. […]

retina of diabetic rats = details: cited from earlier work; for loss / disappearance of pericytes in the retina of diabetic rats: literature
[3] = 10 μM, listed as Nα-acetyl-cysteine
[4] = 50 μM, listed as Nα-acetyl-cysteine

## z-DEVD-fmk
Bovine retinal pericytes [1]; 50 μM, two passages
  % inhibition of the apoptosis induced by AGE-methylglyoxal: almost total inhibition
Bovine retinal pericytes [2]; 50 μM
  % inhibition of the stimulated production of DAG induced by AGE-methylglyoxal: not affected
  % inhibition of the stimulated production of ceramides induced by AGE-methylglyoxal: not affected

## CC(=O)N[C@@H](CS)C(=O)O [N-acetyl-L-cysteine, Nα-acetyl-L-cysteine]
Bovine retinal pericytes [1]; 10 μM, two passages
  % inhibition of the apoptosis induced by AGE-methylglyoxal: protected the pericytes against the apoptosis; also recorded: complete inhibition
Bovine retinal pericytes [1]; 10 μM, two passages, listed as Nα-acetyl-cysteine
  % inhibition of the apoptosis induced by AGE-methylglyoxal: normalized
Bovine retinal pericytes [1]; 50 μM, two passages
  % inhibition of the apoptosis induced by AGE-methylglyoxal: protected the pericytes against the apoptosis
Bovine retinal pericytes [1]; 50 μM, two passages, listed as Nα-acetyl-cysteine
  % inhibition of the apoptosis induced by AGE-methylglyoxal: normalized
Bovine retinal pericytes [2]; [3]
  % inhibition of the stimulated production of DAG induced by AGE-methylglyoxal: normalized
  % inhibition of the stimulated production of ceramides induced by AGE-methylglyoxal: normalized
Bovine retinal pericytes [2]; [4]
  % inhibition of the stimulated production of DAG induced by AGE-methylglyoxal: normalized
  % inhibition of the stimulated production of ceramides induced by AGE-methylglyoxal: normalized

## O=c1c2ccccc2[se]n1-c1ccccc1 [ebselen]
Bovine retinal pericytes [1]; Bos taurus, 5 μM, two passages, read-out: % inhibition of the apoptosis induced by AGE-methylglyoxal
  inhibition at 5 µM: 94%
Bovine retinal pericytes [1]; Bos taurus, 10 μM, two passages, read-out: % inhibition of the apoptosis induced by AGE-methylglyoxal
  inhibition at 10 µM: 88%

## CNCCCN1c2ccccc2CCc2ccccc21 [desipramine, 10,11-dihydro-5-(3-(methylamino)propyl)-5H-dibenz(b,f)azepine]
Bovine retinal pericytes [1]; 0.3 μM (b168 prints 0.3 mM), two passages
  % inhibition of the apoptosis induced by AGE-methylglyoxal: 50%
Bovine retinal pericytes [1]; 1 μM (results not shown)
  baseline apoptosis rate of the control cells: affected
Bovine retinal pericytes [1]; Bos taurus, 0.1 μM, two passages, read-out: % inhibition of the apoptosis induced by AGE-methylglyoxal
  inhibition at 0.1 µM: 35%
Bovine retinal pericytes [1]; Bos taurus, 0.3 μM (b168 prints 0.3 mM), two passages, read-out: % inhibition of the apoptosis induced by AGE-methylglyoxal
  inhibition at 0.3 µM: 35%
Bovine retinal pericytes [2]; 0.1 μM
  % inhibition of the stimulated production of DAG induced by AGE-methylglyoxal: 17%
  % inhibition of the stimulated production of ceramides induced by AGE-methylglyoxal: 78%
Bovine retinal pericytes [2]; 0.3 μM
  % inhibition of the stimulated production of DAG induced by AGE-methylglyoxal: 13%
  % inhibition of the stimulated production of ceramides induced by AGE-methylglyoxal: 95%
Bovine retinal pericytes [2]; 1 μM (results not shown)
  baseline levels of the ceramides and DAG in the cells cultured with BSA control: affected

## CC1=C(/C=C/C(C)=C/C=C/C(C)=C/C=C/C=C(C)/C=C/C=C(C)/C=C/C2=C(C)C[C@@H](O)CC2(C)C)C(C)(C)C[C@H](O)C1 [zeaxanthin]
Bovine retinal pericytes [1]; 2 μM, two passages
  % inhibition of the apoptosis induced by AGE-methylglyoxal: 50%

## Cc1c(C)c2c(c(C)c1O)CCC(C)(C(=O)O)O2 (centres unmarked) [trilox]
Retina of diabetic rats
  loss / disappearance of pericytes in the retina of diabetic rats: prevent

## z-LEHD-fmk
Bovine retinal pericytes [1]; 50 μM, two passages
  % inhibition of the apoptosis induced by AGE-methylglyoxal: almost total inhibition
Bovine retinal pericytes [2]; 50 μM
  % inhibition of the stimulated production of DAG induced by AGE-methylglyoxal: not affected
  % inhibition of the stimulated production of ceramides induced by AGE-methylglyoxal: not affected

## CCCC[C@@H](C)[C@@H](OC(=O)C[C@@H](CC(=O)O)C(=O)O)[C@H](C[C@@H](C)C[C@H](O)CCCC[C@@H](O)C[C@H](O)[C@H](C)N)OC(=O)C[C@@H](CC(=O)O)C(=O)O [fumonisin B1]
Bovine retinal pericytes [1]; 0.01 μM, two passages
  % inhibition of the apoptosis induced by AGE-methylglyoxal: 22%
Bovine retinal pericytes [1]; 0.01 μM, two passages, listed as Fumonisin B1, 0.01 µM
  % inhibition of the apoptosis induced by AGE-methylglyoxal: 20%
Bovine retinal pericytes [1]; 0.1 μM (results not shown)
  effect on the base apoptosis rate of cells cultured in BSA control: proapoptotic

## N=C(N)NN [aminoguanidine]
Retina of diabetic rats
  loss / disappearance of pericytes in the retina of diabetic rats: prevents
Retina of diabetic rats; streptozotocin diabetic rat model (Hammes et al., 1991)
  reduction of the number of acellular capillaries in the retina: 80%

## S=C(S)OC1CC2CC1C1CCCC21 (centres unmarked) [D609]
Bovine retinal pericytes [1]; 9.4 μM, two passages
  % inhibition of the apoptosis induced by AGE-methylglyoxal: 40%
Bovine retinal pericytes [1]; 30 μM, two passages
  % inhibition of the apoptosis induced by AGE-methylglyoxal: 47% and 50%
Bovine retinal pericytes [2]; 9.4 μM
  % inhibition of the stimulated production of DAG induced by AGE-methylglyoxal: 80%
  % inhibition of the stimulated production of ceramides induced by AGE-methylglyoxal: 95%
Bovine retinal pericytes [2]; 30 μM
  % inhibition of the stimulated production of DAG induced by AGE-methylglyoxal: 65%
  % inhibition of the stimulated production of ceramides induced by AGE-methylglyoxal: complete inhibition

## z-VDVAD-fmk
Bovine retinal pericytes [1]; 50 μM, two passages
  % inhibition of the apoptosis induced by AGE-methylglyoxal: partial inhibition
Bovine retinal pericytes [1]; 50 μM, two passages, listed as z-VDVAD
  % inhibition of the apoptosis induced by AGE-methylglyoxal: partially inhibits

## Nc1ncc(-c2ccc(O)cc2)nc1Cc1ccccc1 [coelenteramine]
Bovine retinal pericytes [1]; 2 μM, two passages
  % inhibition of the apoptosis induced by AGE-methylglyoxal: 60% and ~50%

## z-VAD-fmk
Bovine retinal pericytes [1]; 50 μM, two passages
  % inhibition of the apoptosis induced by AGE-methylglyoxal: almost total inhibition
Bovine retinal pericytes [2]; 50 μM
  % inhibition of the stimulated production of DAG induced by AGE-methylglyoxal: 100%
  % inhibition of the stimulated production of ceramides induced by AGE-methylglyoxal: 75%

Source: patent US8119609B2, “Methods of treating diabetic retinopathy with pericyte apoptosis inhibitors” (Merck Sante, priority 2000, dated 2012)
